Results: ChEMBL document CHEMBL4351024, “Steroidal N-Sulfonylimidates: Synthesis and biological evaluation in breast cancer cells” (Eur J Med Chem, 2019)
Active and inactive are the calls of the source. No cut-off for these calls is given here.

Columns and labels:
MCF7 = assay: Antiproliferative activity against human MCF7 cells assessed as reduction in cell viability after 72 hrs by MTT assay; type: functional, cell-based
MDA-MB-231 [1] = assay: Antiproliferative activity against human MDA-MB-231 cells assessed as reduction in cell viability after 72 hrs by MTT assay; type: functional, cell-based; conditions: MDA-MB-231, 72 h
MCF-10A [2] = assay: Cytotoxicity against human MCF10A assessed as reduction in cell viability up to 12 uM after 72 hrs by MTT assay; type: cell-based
MCF-10A [3] = assay: Cytotoxicity against human MCF10A assessed as reduction in cell viability at 25 uM after 72 hrs by MTT assay; type: cell-based
MDA-MB-231 [4] = assay: Effect on EGFR expression in human MDA-MB-231 cells up to 50 uM measured after 48 hrs by Westernblot analysis; type: functional, cell-based
[5] = molecular target: Serine/threonine-protein kinase mTOR (Homo sapiens) (UniProt P42345); assay: Inhibition of mTOR phosphorylation in human MDA-MB-231 cells up to 50 uM measured after 48 hrs by Western blot analysis; type: cell-based
[6] = molecular target: Transcription factor p65 (Homo sapiens) (UniProt Q04206); assay: Down regulation of NFkappaB p65 phosphorylation in human MDA-MB-231 cells up to 50 uM measured after 48 hrs by Western blot analysis; type: cell-based
Sequence of Transcription factor p65 (Homo sapiens) (Q04206 whole entry): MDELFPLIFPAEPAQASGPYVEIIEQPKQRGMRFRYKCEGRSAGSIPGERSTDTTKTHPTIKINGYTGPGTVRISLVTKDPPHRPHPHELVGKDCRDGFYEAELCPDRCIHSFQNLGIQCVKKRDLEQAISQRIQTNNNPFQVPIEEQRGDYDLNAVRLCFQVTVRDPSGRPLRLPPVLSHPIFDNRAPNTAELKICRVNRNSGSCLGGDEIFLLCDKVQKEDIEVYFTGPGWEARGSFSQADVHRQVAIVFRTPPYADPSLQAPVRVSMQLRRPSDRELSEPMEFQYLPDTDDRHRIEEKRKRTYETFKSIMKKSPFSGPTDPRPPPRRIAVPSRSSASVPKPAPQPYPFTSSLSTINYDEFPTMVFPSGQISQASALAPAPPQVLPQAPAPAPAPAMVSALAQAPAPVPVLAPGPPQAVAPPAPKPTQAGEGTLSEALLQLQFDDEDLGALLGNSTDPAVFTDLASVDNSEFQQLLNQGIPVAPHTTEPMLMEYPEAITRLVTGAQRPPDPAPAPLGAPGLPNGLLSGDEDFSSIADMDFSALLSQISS

MDA-MB-231 [7] = assay: Down regulation of slug levels in human MDA-MB-231 cells up to 50 uM measured after 48 hrs by Westernblot analysis; type: functional, cell-based
[8] = Effect on RAS/RAF/MEK/ERK pathway in human MDA-MB-231 cells assessed as increase in ERK1/2 phosphorylation up to 50 uM measured after 48 hrs by Western blot analysis; type: cell-based
MDA-MB-231 [9] = assay: Downregulation of cyclin-D1 expression in human MDA-MB-231 cells up to 50 uM measured after 48 hrs by Westernblot analysis; type: functional, cell-based
[10] = Homo sapiens, MCF7, 72 h, read-out: IC50

Row | IC50 (MCF7; [10]) [µM] | Structure (SMILES) | further results
1 | 4.5 | CCCO/C(C[C@]1(OC)CC[C@H]2[C@@H]3CCc4cc(OC)ccc4[C@H]3CC[C@@]21C)=N/S(=O)(=O)c1ccc(C)cc1 | 
2 | 22.2 | COc1ccc2c(c1)CC[C@@H]1[C@@H]2CC[C@@]2(C)[C@H]1CC[C@]2(C/C(=N\S(=O)(=O)c1ccc(C)cc1)OCC(Cl)(Cl)Cl)OC | 
3 |  | Cc1ccc(S(=O)(=O)NC(=O)C[C@]2(O)CC[C@H]3[C@@H]4CCc5cc(O)ccc5[C@H]4CC[C@@]32C)cc1 | IC50 (MCF7; mcf7): Not Active
4 | 20 | COc1ccc2c(c1)CC[C@@H]1[C@@H]2CC[C@@]2(C)[C@H]1CC[C@]2(C/C(=N\S(=O)(=O)c1ccc(C)cc1)OC1CCCCC1)OC | 
5 |  | CCCCCCCO/C(C[C@]1(OC)CC[C@H]2[C@@H]3CCc4cc(OC)ccc4[C@H]3CC[C@@]21C)=N/S(=O)(=O)c1ccc(C)cc1 | IC50 (MCF7; mcf7): Not Active
6 | 5.6 | CCO/C(CC1=CC[C@H]2[C@@H]3CCc4cc(OC(C)=O)ccc4[C@H]3CC[C@]12C)=N/S(=O)(=O)c1ccc(C)cc1 | 
7 | 21.7 | COc1ccc2c(c1)CC[C@@H]1[C@@H]2CC[C@@]2(C)[C@H]1CC[C@]2(C/C(=N\S(=O)(=O)c1ccc(C)cc1)OCCC(C)C)OC | 
8 | 11.4 | COc1ccc2c(c1)CC[C@@H]1[C@@H]2CC[C@@]2(C)[C@H]1CC[C@]2(C/C(=N\S(=O)(=O)c1ccc(C)cc1)OCCCCl)OC | 
9 |  | CCO/C(C[C@]1(O)CC[C@H]2[C@@H]3CCc4cc(OCc5ccccc5)ccc4[C@H]3CC[C@@]21C)=N/S(=O)(=O)c1ccc(C)cc1 | IC50 (MCF7; mcf7): Not Active
10 | 4.3 | COc1ccc2c(c1)CC[C@@H]1[C@@H]2CC[C@@]2(C)[C@H]1CC[C@]2(C/C(=N\S(=O)(=O)c1ccc(C)cc1)OC(C)C)OC | IC50 (MDA-MB-231 [1]): 11.3 µM; Activity (MCF-10A [2]): Non-Toxic; Activity (MCF-10A [3]): Toxic; Activity (MDA-MB-231 [4]): inactive; inhibition [5]: inactive; Activity [6]: Active; Activity (MDA-MB-231 [7]): Active; Activity [8]: Active; Activity (MDA-MB-231 [9]): Active
11 | 15.5 | CCCO/C(C[C@]1(O)CC[C@H]2[C@@H]3CCc4cc(OC)ccc4[C@H]3CC[C@@]21C)=N/S(=O)(=O)c1ccc(C)cc1 | 
12 | 17.9 | CCCO/C(C[C@]1(O)CC[C@H]2[C@@H]3CCc4cc(OC(C)=O)ccc4[C@H]3CC[C@@]21C)=N/S(=O)(=O)c1ccc(C)cc1 | 
13 |  | CCO/C(C[C@]1(O)CC[C@H]2[C@@H]3CCc4cc(OS(=O)(=O)c5ccc(C)cc5)ccc4[C@H]3CC[C@@]21C)=N/S(=O)(=O)c1ccc(C)cc1 | IC50 (MCF7; mcf7): Not Active
14 | 11.8 | CCO/C(C[C@]1(O)CC[C@H]2[C@@H]3CCc4cc(OC)ccc4[C@H]3CC[C@@]21C)=N/S(=O)(=O)c1ccc(C)cc1 | 
15 | 12.2 | CCO/C(C[C@]1(O)CC[C@H]2[C@@H]3CCc4cc(OC(C)=O)ccc4[C@H]3CC[C@@]21C)=N/S(=O)(=O)c1ccc(C)cc1 | 
16 | 9.5 | CCO/C(CC1=CC[C@H]2[C@@H]3CCc4cc(OC)ccc4[C@H]3CC[C@]12C)=N/S(=O)(=O)c1ccc(C)cc1 | 
17 | 8.5 | COc1ccc2c(c1)CC[C@@H]1[C@@H]2CC[C@@]2(C)[C@H]1CC[C@]2(C/C(=N\S(=O)(=O)c1ccc(C)cc1)OCC(C)C)OC | 
18 |  | CCCCCCCCCCCCO/C(C[C@]1(OC)CC[C@H]2[C@@H]3CCc4cc(OC)ccc4[C@H]3CC[C@@]21C)=N/S(=O)(=O)c1ccc(C)cc1 | IC50 (MCF7; mcf7): Not Active
19 | 22.4 | CCCO/C(C[C@]1(O)CC[C@H]2[C@@H]3CCC4=CC(=O)CC[C@]4(C)[C@H]3CC[C@@]21C)=N/S(=O)(=O)c1ccc(C)cc1 | 
20 | 15.3 | CCO/C(C[C@]1(O)CC[C@H]2[C@@H]3CCc4cc(O)ccc4[C@H]3CC[C@@]21C)=N/S(=O)(=O)c1ccc(C)cc1 | 
21 | 10.5 | CCCCO/C(C[C@]1(OC)CC[C@H]2[C@@H]3CCc4cc(OC)ccc4[C@H]3CC[C@@]21C)=N/S(=O)(=O)c1ccc(C)cc1 | 
22 | 9.9 | CCO/C(C[C@]1(O)CC[C@H]2[C@@H]3CCC4=CC(=O)CC[C@]4(C)[C@H]3CC[C@@]21C)=N/S(=O)(=O)c1ccc(C)cc1 | 
23 |  | CCCCCCO/C(C[C@]1(OC)CC[C@H]2[C@@H]3CCc4cc(OC)ccc4[C@H]3CC[C@@]21C)=N/S(=O)(=O)c1ccc(C)cc1 | IC50 (MCF7; mcf7): Not Active
24 | 7 | CCO/C(C[C@]1(OC)CC[C@H]2[C@@H]3CCc4cc(OC)ccc4[C@H]3CC[C@@]21C)=N/S(=O)(=O)c1ccc(C)cc1 | 
25 |  | COc1ccc2c(c1)CC[C@@H]1[C@@H]2CC[C@@]2(C)[C@H]1CC[C@@]2(O)CC(=O)NS(=O)(=O)c1ccc(C)cc1 | IC50 (MCF7; mcf7): Not Active
